# Test results taken from patent US20210379112A1, “STEM CELL THERAPY” (PLASTICELL LIMITED, priority 2018, published 2021).
# Columns and labels:
# UCB derived CD133+ cells = assay: Ex vivo expansion of umbilical cord blood CD133+ cells (flow cytometry, counting beads); format: cell-based, human; conditions: for fold expansion of total nucleated cells (TNC) compared to cells grown in basal media / fold expansion of HSC compared to cells grown in basal media / fold expansion of HSC (Lin−, CD38−, CD34+, CD45RA−, CD133+, CD90+, CD49f+) above basal media containing cytokines: UCB cells; for fold expansion of total nucleated cells (TNC) compared to cells grown in basal media: 5 days culture, vs basal media with cytokines, WR1065 added 16-20 h before harvest; for fold expansion of HSC compared to cells grown in basal media / fold expansion of HSC (Lin−, CD38−, CD34+, CD45RA−, CD133+, CD90+, CD49f+) above basal media containing cytokines: 5 days; for fold expansion of HSC compared to cells grown in basal media: result in words, FIG. 7-12; for fold expansion of HSC (Lin−, CD38−, CD34+, CD45RA−, CD133+, CD90+, CD49f+) above basal media containing cytokines: scriptaid 1 μM, WR1065 100 μM, FIG. 3
# Text: Human UCB units were collected with written informed pre-consent and ethical approval from Oxford and Berkshire National Research Ethical Committees and studies conducted with approval of the NHSBT research committee. UCB mononuclear cells (MNC) were isolated by density gradient centrifugation on lymphocyte separation medium 1077 (PAA Laboratories, Pasching, Austria; density<1.077 g/ml). CD133+ cells were isolated from the MNC with immunomagnetic beads (Miltenyi Biotec, Germany). After isolation, the cells were cryopreserved in 10% DMSO in FCS (fetal calf serum) and stored at −150° C. in aliquots of 1×10^5 cells/vial. Cells were analysed for the purity of the isolation with flow cytometry on a BD LSR II (BD Biosciences, CA) using CD34-APC, CD133-PE and the appropriate isotype controls (all Miltenyi Biotec). Bone marrow derived CD133+ cells were obtained commercially from Lonza and peripheral blood CD133+ cells were isolated using immunomagnetic beads as above from total peripheral blood mononuclear cells obtained commercially from Lonza Biologies.
# Vials from 2 or 3 donors were thawed and pooled in StemSpan ACF media (Stem Cell Technologies) containing 100 ng/mL SCF, 100 ng/mL FLT3LG and 20 ng/mL TPO (all from Miltenyi Biotec). After counting, cells were plated in 96 well round bottom suspension plates at 20,000 cells/well in the above media. Cells were allowed to recover overnight in these conditions in a 37° C. humidified incubator with 5% CO2.
# The next day cells were harvested from the plates counted, and seeded into 24 well Nanex plates (Compass Biomedical) or standard tissue culture treated plates at 2500 cells/well in 1 mL basal media (StemSpan ACF with 100 ng/mL SCF, 100 ng/mL FLT3LG and 20 ng/mL TPO) containing an HDAC inhibitor (for most experiments scriptaid was used at a concentration of 1 μM). An aliquot of cells was used for CFU analysis and another for flow cytometry analysis.
# After 3 days in culture the media was either replaced or supplemented with fresh media with the cytokines (SCF, TPO and FLT3LG) and the HDAC inhibitors (scriptaid 1 μM). Sixteen to twenty hours prior to harvest WR1065 was added at a concentration of 100 μM. After total of 5 days in expansion, cells are harvested, counted and analysed by flow cytometry.
# Cells were harvested, washed and stained in 3% FBS in PBS using a panel of pre-conjugated antibodies. Cells were incubated with antibodies on ice for 30 min, then washed twice in 3% FBS in PBS and resuspended in 250 uL of above buffer before being analysed using a BD Canto II flow cytometer. [Antibody panel was as follows: 5 Lin custom cocktail (CD235a, CD4, CD10, CD11b and CD19) APC-Vio770, CD38-PE-Vio770, CD34-PerCP-Vio700, CD133-PE, CD45RA-VioBlue, CD49f-FITC, CD90-APC (all from Miltenyi Biotec).]
# Cell number was measured using flow cytometry with the aid of counting beads (CountBright beads Life Technologies).
# [1] = tested on: bone marrow derived CD34+ cells; conditions: pre-treatment of bone marrow derived CD34+ cells, in vitro; background; cited from earlier work
# irradiated NSG mice = assay: Repopulation capacity of expanded cord blood cells in immuno-compromised NSG mice (secondary recipients); conditions: secondary recipient mice, bled at week 8; mice received cord blood cells expanded ex vivo with the substance; FIG. 15
# Experimental: The effect of different ex vivo expansion protocols on the ability of the cells to repopulate bone marrow in vivo was investigated. Cells were obtained from cord blood and four cell preparations were produced—1. Unexpanded cells, 2. Cells expanded in the presence of vehicle, 3. Cells expanded in the presence of scriptaid (expanded+SS—FIG. 15), 4. Cells expanded in the presence of scriptaid and WR1065 (expanded+SW—FIG. 15). These cell preparations were then injected into irradiated adult (<8 weeks) male NSG (NOD.Cg-Prkdc^scid II2rcf^Im1Wjl/SzJ) mice. Flow cytometry analysis was performed on blood samples taken at week 15 (CD45^hu & CD45^mu only) to identify animals with evidence of clear engraftment (human CD45+ cells in the blood at week 12, and week 15 human CD45+ count above 1%). Ten of the animals with human CD45+ count above 1%, were used as donors for 10 secondary recipients in one to one manner. At week 20 after cell administration the primary animals were sacrificed. Bone marrow samples were harvested from femurs and tibias and the cells were washed before being counted. 50% of the recovered cells were injected into secondary irradiated animals. In this manner the long term engraftment capabilities of the expanded cells could be determined. The secondary animals were bled at week 8 and whole blood samples analysed by FACs for evidence of engraftment. […]
# [2] = UCB cells from three separate donors and a pooled sample, FIG. 13
SMILES,fold expansion of total nucleated cells (TNC) compared to cells grown in basal media (UCB derived CD133+ cells),fold expansion of HSC compared to cells grown in basal media (UCB derived CD133+ cells),"fold expansion of HSC (Lin−, CD38−, CD34+, CD45RA−, CD133+, CD90+, CD49f+) above basal media containing cytokines (UCB derived CD133+ cells)",further results
Cc1cc(C)cc(C(=O)NOCCCCCC(=O)NO)c1 [LMK235],slightly lower,significantly increased,–,–
Nc1cc(F)ccc1NC(=O)/C=C/c1cnn(C/C=C/c2ccccc2)c1 [RGFP966],increase,similar,–,–
CN1CCc2c(c3ccccc3n2Cc2ccc(C(=O)NO)cc2)C1 [Tubastatin A],similar,significantly increased,–,–
NCCCNCCS [WR1065],–,–,around 3 fold,enhancement of formation of CFU-GEMM and BFU-E colonies [1]: ≤ 38 fold
Cn1cc(CNCC2CCN(c3ncc(C(=O)NO)cn3)CC2)c2ccccc21 [quisinostat],slightly lower,significantly increased,–,–
O=C(CCCCCN1C(=O)c2cccc3cccc(c23)C1=O)NO [scriptaid],slightly reduced,–,approximately 10 fold,"average frequency of human CD45+ cells in whole blood, percentage of viable singlets (irradiated NSG mice): 0.04%; fold expansion of HSC compared to cells cultured in basal media on different culture surfaces (UCB derived CD133+ cells; Nanex scaffolds, TC treated Corning 24 well plates, suspension Greiner Bio 24 well plates, effect similar across surfaces, FIG. 14): significantly increased; fold expansion of HSC compared to cells cultured on basal media, average (UCB derived CD133+ cells; [2]): 30 fold; fold expansion of HSC compared to cells cultured on basal media, range (UCB derived CD133+ cells; [2]): 10-55 fold; proportion of CD133+/CD34+ cells compared to cells grown on cytokines alone (UCB derived CD133+ cells; after 5 days in culture): increase"
